Source: PubChem BioAssay (NCI)
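How tested: cells in 96-well plates exposed to compound for 48 hours at five concentrations. Abbreviation: GI50, concentration required for 50% inhibition of growth. TGI: total growth inhibition.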

What was measured:
Assay in all cases: NCI anticancer screen, dose series, 48 h
[1] = test system: SK-OV-3 ovarian
[2] = test system: MOLT-4 leukemia
[3] = test system: MALME-3M melanoma
[4] = test system: 786-0 renal
[5] = test system: SW-620 colon
[6] = test system: SK-MEL-5 melanoma
[7] = test system: RXF 393 renal
[8] = test system: SF-539 CNS
[9] = test system: EKVX NSCLC
[10] = test system: CCRF-CEM leukemia
[11] = test system: HS 578T breast
[12] = test system: IGROV1 ovarian
[13] = test system: SF-268 CNS
[14] = test system: SNB-75 CNS
[15] = test system: SN12C renal
[16] = test system: KM12 colon
[17] = test system: NCI/ADR-RES ovarian
[18] = test system: NCI-H460 lung
[19] = test system: TK-10 renal
[20] = test system: OVCAR-4 ovarian
[21] = test system: MDA-MB-231 breast
[22] = test system: LOX IMVI melanoma
[23] = test system: HL-60(TB) leukemia
[24] = test system: ACHN renal
[25] = test system: OVCAR-8 ovarian
[26] = test system: CAKI-1 renal
[27] = test system: UACC-257 melanoma
[28] = test system: RPMI-8226 leukemia
[29] = test system: A498 renal
[30] = test system: MDA-MB-435
[31] = test system: A549 NSCLC
[32] = test system: HOP-62 NSCLC
[33] = test system: NCI-H226 lung
[34] = test system: COLO 205 colon
[35] = test system: U251 CNS
[36] = test system: SNB-19 CNS
[37] = test system: K-562 leukemia
[38] = test system: OVCAR-5 ovarian
[39] = test system: UACC-62 melanoma
[40] = test system: M14 melanoma
[41] = test system: SR leukemia
[42] = test system: HCC-2998 colon
[43] = test system: HCT-116 colon
[44] = test system: DU-145 prostate
[45] = test system: OVCAR-3 ovarian
[46] = test system: SF-295 CNS
[47] = test system: SK-MEL-28 melanoma
[48] = test system: SK-MEL-2 melanoma
[49] = test system: NCI-H23 lung
[50] = test system: HT29 colon
[51] = test system: PC-3 prostate
[52] = test system: BT-549 breast
[53] = test system: HCT-15 colon
[54] = test system: UO-31 renal
[55] = test system: MCF7 breast
[56] = test system: HOP-92 NSCLC
[57] = test system: NCI-H522 lung
[58] = test system: T-47D breast
[59] = test system: MDA-N

CCCCCCCCCCCCOC1C(C(COC2OC(C(O)CN3CCCCC3)C3OC(C)(C)OC23)NC(=O)Nc2ccccc2)OC2OC(C)(C)OC21 (stereo not given)
GI50 [1]: 20.4 µM | TGI [1]: 44.1 µM | GI50 [2]: 1.29 µM | TGI [2]: 5.54 µM | GI50 [3]: 10.1 µM | TGI [3]: 22.2 µM | GI50 [4]: 14.1 µM | TGI [4]: 30.5 µM | GI50 [5]: 4.11 µM | TGI [5]: 14.7 µM | GI50 [6]: 8.66 µM | TGI [6]: 21.7 µM | GI50 [7]: 6.03 µM | TGI [7]: 26.1 µM | GI50 [8]: 16.6 µM | TGI [8]: 31.4 µM | GI50 [9]: 14.4 µM | TGI [9]: 30.2 µM | GI50 [10]: 0.863 µM | TGI [10]: 2.23 µM | GI50 [11]: 8.75 µM | TGI [11]: 23.6 µM | GI50 [12]: 16.9 µM | TGI [12]: 39.5 µM | GI50 [13]: 10.3 µM | TGI [13]: 25.4 µM | GI50 [14]: 13.6 µM | TGI [14]: 29.8 µM | GI50 [15]: 16 µM | TGI [15]: 33.2 µM | GI50 [16]: 7.06 µM | TGI [16]: 18.7 µM | GI50 [17]: 15.3 µM | TGI [17]: 33.3 µM | GI50 [18]: 4.52 µM | TGI [18]: 16.9 µM | GI50 [19]: 10.2 µM | TGI [19]: 26 µM | GI50 [20]: 9.48 µM | TGI [20]: 27.3 µM | GI50 [21]: 12.8 µM | TGI [21]: 27.4 µM | GI50 [22]: 7.87 µM | TGI [22]: 26.1 µM | GI50 [23]: 3.96 µM | TGI [23]: 11.3 µM | GI50 [24]: 17.3 µM | TGI [24]: 34.5 µM | GI50 [25]: 15.5 µM | TGI [25]: 39.7 µM | GI50 [26]: 17.7 µM | TGI [26]: 35.7 µM | GI50 [27]: 19.3 µM | TGI [27]: 38 µM | GI50 [28]: 5.32 µM | TGI [28]: 15.3 µM | GI50 [29]: 16.9 µM | TGI [29]: 32.7 µM | GI50 [30]: 7.02 µM | TGI [30]: 20.8 µM | GI50 [31]: 11.4 µM | TGI [31]: 38 µM | GI50 [32]: 16.1 µM | TGI [32]: 32.9 µM | GI50 [33]: 17 µM | TGI [33]: 38.1 µM | GI50 [34]: 3.86 µM | TGI [34]: 16.8 µM | GI50 [35]: 9.46 µM | TGI [35]: 27.2 µM | GI50 [36]: 18.2 µM | TGI [36]: 44.5 µM | GI50 [37]: 2.06 µM | TGI [37]: 5.65 µM | GI50 [38]: 18.5 µM | TGI [38]: 34.3 µM | GI50 [39]: 15.9 µM | TGI [39]: 31 µM | GI50 [40]: 7.75 µM | TGI [40]: 19.4 µM | GI50 [41]: 1.91 µM | TGI [41]: 4.3 µM | GI50 [42]: 4.61 µM | TGI [42]: 9.97 µM | GI50 [43]: 4.54 µM | TGI [43]: 12.7 µM | GI50 [44]: 11.9 µM | TGI [44]: 25.7 µM | GI50 [45]: 14.7 µM | TGI [45]: 34.6 µM | GI50 [46]: 15.3 µM | TGI [46]: 31.7 µM | GI50 [47]: 7.89 µM | TGI [47]: 15.3 µM | GI50 [48]: 19.6 µM | TGI [48]: 41.6 µM | GI50 [49]: 17.9 µM | TGI [49]: 37.1 µM | GI50 [50]: 2 µM | TGI [50]: 4.73 µM | GI50 [51]: 10.7 µM | TGI [51]: 24.9 µM | GI50 [52]: 14.9 µM | TGI [52]: 29.5 µM | GI50 [53]: 8.6 µM | TGI [53]: 24.3 µM | GI50 [54]: 10.3 µM | TGI [54]: 28.2 µM | GI50 [55]: 3.16 µM | TGI [55]: 10.6 µM | GI50 [56]: 6.86 µM | TGI [56]: 19.7 µM | GI50 [57]: 17.5 µM | TGI [57]: 48 µM | GI50 [58]: 14.5 µM | TGI [58]: 37.8 µM

C#CCCOC1(OC)N=NC(C)(C)O1 (stereo not given)
TGI [2]: > 100 µM | TGI [3]: > 100 µM | TGI [4]: > 100 µM | TGI [5]: > 100 µM | TGI [6]: > 100 µM | TGI [7]: > 100 µM | TGI [8]: > 100 µM | TGI [9]: > 100 µM | TGI [10]: > 100 µM | TGI [11]: > 100 µM | TGI [12]: > 100 µM | TGI [13]: > 100 µM | TGI [14]: > 100 µM | TGI [15]: > 100 µM | TGI [16]: > 100 µM | TGI [17]: > 100 µM | TGI [18]: > 100 µM | TGI [20]: > 100 µM | TGI [21]: > 100 µM | TGI [22]: > 100 µM | TGI [23]: > 100 µM | TGI [24]: > 100 µM | TGI [25]: > 100 µM | TGI [27]: > 100 µM | TGI [28]: > 100 µM | TGI [29]: > 100 µM | TGI [30]: > 100 µM | TGI [31]: > 100 µM | TGI [32]: > 100 µM | TGI [33]: > 100 µM | TGI [34]: > 100 µM | TGI [35]: > 100 µM | TGI [36]: > 100 µM | TGI [37]: > 100 µM | TGI [38]: > 100 µM | TGI [39]: > 100 µM | TGI [40]: > 100 µM | TGI [41]: > 100 µM | TGI [42]: > 100 µM | TGI [43]: > 100 µM | TGI [44]: > 100 µM | TGI [45]: > 100 µM | TGI [46]: > 100 µM | TGI [47]: > 100 µM | TGI [59]: > 100 µM | TGI [48]: > 100 µM | TGI [49]: > 100 µM | TGI [50]: > 100 µM | TGI [51]: > 100 µM | TGI [53]: > 100 µM | TGI [54]: > 100 µM | TGI [56]: > 100 µM | TGI [57]: > 100 µM | TGI [58]: > 100 µM
